# Measurements reported in publication PMC5588548, “Suramin Inhibits Osteoarthritic Cartilage Degradation by Increasing Extracellular Levels of Chondroprotective Tissue Inhibitor of Metalloproteinases 3” (Molecular Pharmacology, 2017).
# Experiments:
# Type in all cases: cell-based
# [1] = tested on: HTB94 chondrosarcoma cells; conditions: after 8 hours; TIMP-3 1 nM preincubated with suramin 200 µg/ml; HTB94 cells
# Protocol: Cells (HTB94 chondrosarcoma cells, primary porcine chondrocytes, or human osteoarthritic chondrocytes) were plated overnight (6 × 10^5 cells per well of a 12-well plate) in DMEM containing 10% FCS and washed three times in serum-free DMEM.
# To evaluate endocytosis of exogenously added TIMP-3, cells were incubated with recombinant TIMP-3 (1 nM in 1.5 ml DMEM with 0.1% FCS) for 0–24 hours. Conditioned media were concentrated by precipitation with trichloroacetic acid [5% (v/v), 4°C, 18 hours]. After centrifugation (13,000 rpm, 4°C, 10 minutes), protein-containing pellets were resuspended in SDS sample buffer (30 µl), electrophoresed (7 µl) on a 10% polyacrylamide gel, and immunoblotted onto polyvinylidene fluoride. After blocking in 5% (m/v) BSA in Tris-buffered saline, TIMP-3 levels were analyzed using an M2 anti-FLAG antibody (Sigma-Aldrich), an alkaline phosphatase–conjugated anti-mouse secondary antibody (Promega, Southampton, UK), and a Western Blue stabilized substrate for alkaline phosphatase (Promega). Immunoblots were analyzed by densitometry using Phoretix 1D densitometry software (TotalLab, Newcastle-upon-Tyne, UK), and TIMP-3 remaining in the medium (mean ± S.D., n = 3) was calculated relative to pixel volume at a t of 0 hours (defined as 100%).
# [2] = tested on: HTB94 chondrosarcoma cells; experiment: Cell viability assay (MTS), HTB94 cells; conditions: suramin 0–250 µg/ml, 72 hours
# Protocol: HTB94 chondrosarcoma cells or human OA chondrocytes (10^3 cells per well in 96-well plates) were plated overnight in DMEM with 10% FCS. Cells were washed in serum-free cartilage medium and treated for 48–72 hours with suramin (0–250 µg/ml) or sodium nitroprusside (10 mM) as a control to induce cell death. Cell viability was then assessed using the 3-(4,5-dimethylthiazol-2-yl)-5-(3-carboxymethoxyphenyl)-2-(4-sulfophenyl)-2H-tetrazolium CellTiter Cell Proliferation Assay (Promega) according to the manufacturer’s instructions (mean ± S.D., n = 3).
# [3] = tested on: porcine cartilage explants; experiment: Aggrecan release from porcine cartilage explants (DMMB assay, neo-epitope immunoblotting)
# Protocol: The effects of suramin on cartilage degradation were assessed using porcine or human cartilage explants. Explants were rested for 48 hours after dissection and were washed with serum-free DMEM. […]
# Aggrecan degradation was analyzed by quantifying aggrecan fragments released into the conditioned media using the dimethylmethylene blue (DMMB) dye-binding assay ([Farndale et al., 1986]) (mean ± S.D., n = 3) and by immunoblotting with neo-epitope antibodies that recognize ADAMTS-cleaved but not intact aggrecan. For immunoblotting, conditioned media were deglycosylated by adding an equal volume of 200 mM sodium acetate and 50 mM Tris/HCl, pH 6.8, containing chondroitinase and β-endoglycosidase (0.05 U each; 18 hours, 37°C; Sigma-Aldrich). Aggrecan fragments were precipitated by adding five volumes of ice-cold acetone (18 hours, −20°C). After centrifugation (13,000 rpm, 10 minutes, 4°C), pellets were resuspended in SDS sample buffer, separated by electrophoresis on a 6% (v/v) polyacrylamide gel, and blotted onto polyvinylidene fluoride. Membranes were blocked with 5% (m/v) BSA in Tris-buffered saline and incubated with either a rabbit antibody that recognizes the AGEG neo-epitope generated by ADAMTS cleavage of the TAQE^1771∼^1772AGEG bond of aggrecan ([Troeberg et al., 2008]) or a mouse antibody that recognizes the ARGSV neo-epitope generated by ADAMTS cleavage of the NITEGE^373∼^374ARGSV bond ([Hughes et al., 1995]).
smiles,measurement,setting,value
Cc1ccc(C(=O)Nc2ccc(S(=O)(=O)O)c3cc(S(=O)(=O)O)cc(S(=O)(=O)O)c23)cc1NC(=O)c1cccc(NC(=O)Nc2cccc(C(=O)Nc3cc(C(=O)Nc4ccc(S(=O)(=O)O)c5cc(S(=O)(=O)O)cc(S(=O)(=O)O)c45)ccc3C)c2)c1 [suramin],TIMP-3 remaining in the medium,[1],more than 85%
same,cell viability (MTS),[2],no effect
same,IC50,"[3]; Sus scrofa, 48 h, porcine cartilage explants, retinoic acid 1 µM, 48 hours, DMMB assay, read-out: IC50 for inhibition of aggrecan release",98 ± 9 µg/mL
same,aggrecan release,"[3]; porcine cartilage explants stimulated with IL-1 10 ng/ml or retinoic acid 1 µM, 48 hours, DMMB assay",effectively inhibited
same,aggrecan degradation at ADAMTS-susceptible NITEGE373∼374ARGSV and TAQE1771∼1772AGEG sites (neo-epitope immunoblotting),"[3]; porcine cartilage explants, retinoic acid 1 µM, 48 hours",inhibited
same,aggrecan degradation,"[3]; porcine cartilage, retinoic acid 1 µM, 30 hours, with anti–TIMP-3 antibody MAB973 50 µg/ml",unable to inhibit
same,aggrecan release,"[3]; porcine cartilage, retinoic acid 1 µM, 30 hours, with isotype control antibody 50 µg/ml",significantly inhibited
